Laboratory results reported in PMC12188386, “Selective CBP/EP300 Bromodomain Inhibitors: Novel Epigenetic Tools to Counter TNF-α-Driven Inflammation” (JACS Au, 2025).
≈ marks a conversion by molar mass, not a printed value. Read-outs that look alike come from different tables or passages of the source. Blank lines part the entries; values can stand above or below the molecule they belong to.

What was measured:
[1] = test system: TNF-α-induced cytokine expression in THP-1 cells; test: cytokine mRNA expression by RT-qPCR; assay type: cell-based, human; details: 1 h co-treatment of THP-1 cells with 10 ng/mL TNF-α and 1 μM compound
Description: For cytokine expression determination, 5x10^5 THP-1 cells were plated on 12 well plates the day prior to treatment with 10 ng/mL recombinant human TNF -α (aa 77-233) protein (R&D systems, 10291 -TA) and compounds at a final concentration of 0.1 % DMSO. In all cases, total
(§1) RNA was extracted using the NucleoSpin® RNA kit (Machery -Nagel) and used for cDNA synthesis with the High -Capacity cDNA Reverse Transcription kit (Applied Biosystems). RT-qPCR reactions were performed using PowerSYBR™ green PCR Master Mix (Applied Biosystems) and a LightCycler® 480 (Roche). cDNA was denatured for 10 min at 95 °C followed by 40 cycles of 15 s at 95 °C and 1 min at 60 °C. Cp values were determined as the maximum of the second derivative and target gene expression was compared to that of hprt from the same sample using the 2-ΔCp method. Gene expression was then normalized to the average of the control samples from the same day, or all biological replicates. […]

MRC5 cells = test: viability assay (resazurin); assay type: cell-based; details: three-day treatment, concentration resulting in 70 % viability
Description: MRC5 (2x10^3 cells/well) or THP-1 (8x10^3 cells/well) cells were plated onto 96 well plates and treated with compounds at a final DMSO concentration of 0.5 % (MRC5) or 0.1 % (THP-1).
After 3 days of treatment, resazurin (Acros Organics) was added at a final concentration of 86 μ and incu ated for 2h15 (MRC5) or 3 h (THP-1). Fluorescence (ex. 560 nm, em. 590 nm) was read using a SpectraMax M5 (Molecular devices). GI30 values were calculated as the compound concentration resulting in 70 % viability compared to DMSO treated controls using a nonlinear regression fit using GraphPad Prism with the following equation: (Y=Bottom + (100-Bottom)/(1+(IC50/X)^HillSlope)). […]
After 1.5 h, mice were injected with 10 µL of the prepared CAPTISOL […]
foodpad and also intraperitoneally (for i.p. injection, the 10 µL of CAPTISOL solution was diluted to a final volume of 100 µL using PBS). Organs were collected 5 h after TNF-α […]
LEGENDPlexTM assays (Mouse Pro-inflammatory Chemokine Panel and Mouse Inflammation Panel; Biolegend) were performed to monitor cytokine/chemokine expression. Briefly, popliteal LNs were collected and carefully disrupted in […] ice-cold phosphate buffer, minimizing cell rupture. The suspension was centrifuged at 1,500 rpm for 5 min, and the […]

[2] = test system: TNF-α-induced IL-8 secretion from THP-1 cells; test: cytokine protein measurement (LEGENDPlex); assay type: cell-based, human; details: 10 ng/mL TNF-α, 1 μM compound
Description: For cytokine expression determination, 5x10^5 THP-1 cells were plated on 12 well plates the day prior to treatment with 10 ng/mL recombinant human TNF -α (aa 77-233) protein (R&D systems, 10291 -TA) and compounds at a final concentration of 0.1 % DMSO. In all cases, total […]
Cytokine protein measurements
THP-1 cells were plated and treated as for the quantitative RT -PCR, then the cell culture medium was harvested by pelleting the cells (300g, 3min) and taking the supernatant .
Cytokine protein concentrations were determined using the LEGENDPlexTM Human Inflammation Panel 1 (BioLegend) assay with 25 µL of culture medium following the manufacturer’s instructi ns. amp es were ana zed f w c t metr n an rtessa Biosciences), and data was analyzed using LEGENDPlex software (BioLegend).

CBP-BRD = details: TR-FRET, read-out: Affinity to CBP-BRD, IC50, cited from earlier work
BRD4(1)-BRD = details: cited from earlier work
kinetic solubility = assay type: physicochemical; details: PBS buffer, aqueous buffer, kinetic from dmso stock, PBS pH 7.4, 37°C, ± st. dev. between technical replicates, read-out: Kin. Sol.
Description: Starting from an initial concentration of 100, 50 or 20 µM, a 2-fold serial dilution of the compound (10 mM stock in DMSO) was prepared in a mixture of ACN/Buffer (PBS, pH = 7.4) 2:8, with 1% DMSO. 350 µL was transferred to a 96-Well Plate (Greiner, UV-star) then UV absorption (240-400 nm, 10 nm steps) was measured. The absorption was blank-corrected and plotted against concentration. The wavelength (λ) providing the best fitting straight line […]
was used as the calibration curve. To obtain saturated solutions of the compounds of interest, in duplicates 4.4 µL of a 10 or 5 mM stock in DMSO was added to 436 µL Buffer (PBS, pH = 7.4), to give a final concentration of 100 or 50 µM. Samples were incubated on a shaker (500 rpm) at 37°C for 90 minutes and then filtered (Millex-GV 13 mm, 0.22 µm). 304 µL of the filtrate was mixed with 76 µL of acetonitrile on a dilution plate, from which 350 µL was transferred to a UV-plate and UV-absorption was read using a SpectraMax M5 (Molecular devices). The absorbance was blank-corrected and compared to the calibration curve to […]
solubility. The wavelengths used for the calibration curve are available in Table S4.
Based on the known density of 12.5 % CAPTISOL® solution (d = 1.05755 g/mL at 25 °C), the precise weight of the resulting solution and so the required amount of water by weight was calculated. The water was added portion wise with agitation, vortexing and sonication cycles in between additions. The saturated solutions were then filtered (Millex-GV 13 mm, 0.22 µm). In duplicates, aliquots of the filtrates were taken and diluted with blank 12.5 % CAPTISOL® water solution in either a 1:14 (higher sol. compounds) or 1:7 (lower sol. compounds) ratio, 350 µL was transferred to a 96-Well Plate (Greiner, UV-star) then UV absorption (240-400 nm, 10 nm steps) was measured using a SpectraMax M5 (Molecular devices). The absorption was blank-corrected, compared to the calibration curve obtained during the solubility measurement method above and finally corrected for the dilution ratio to obtain the compound concentration in the saturated 12.5 % CAPTISOL® solution. The calculated concentrations are available in Table S4.
BROMOscan™ assays (provided by Eurofins DiscoverX, US)1,2 […]
coli host derived from the BL21 strain. E. coli were grown to log-phase and infected with T7 phage from a frozen stock (multiplicity of infection = 0.4) and incubated with shaking at 32°C until lysis (90-150 minutes). The lysates were centrifuged (5,000 x g) and filtered (0.2µm) to remove cell debris. Streptavidin-coated magnetic beads were treated with biotinylated small molecule or acetylated peptide ligands for 30 minutes at room temperature to generate affinity resins for bromodomain assays. The liganded beads were blocked with excess biotin and washed with blocking buffer (SeaBlock (Pierce), 1 % BSA, 0.05 % Tween 20, 1 mM DTT) to remove unbound ligand and to reduce non specific phage binding. Binding reactions were assembled by combining bromodomains, liganded affinity beads, and test compounds (see […]
Sodium azide, 7.4 mM DTT). All reactions were performed in polypropylene 384-well plates in a final volume of 0.02 mL. The assay plates were incubated at room temperature with […]
20). The beads were then resuspended in elution buffer (1x PBS, 0.05% Tween 20, 2 µM non-

[3] = target: T1, CBP-BRD (ePL-CBP-BRD in HEK293T cells) (Homo sapiens, UniProt Q92793); test: CBP-BRD InCELL Pulse cellular target engagement; assay type: cell-based; details: 1 h compound treatment of HEK293T cells transiently transfected with ePL-CBP-BRD
T1 construct: (residues 1083-1197) was cloned into the pICP-ePL-C vector; expressed in transfected cells; host or cells: HEK293T, transient transfection (vector pICP-ePL-C, DiscoverX 94-4007S)
Description: The CBP-BRD (residues 1083-1197) was cloned into the pICP-ePL-C vector (DiscoverX, 94-4007S) between the EcoRI and XhoI restriction sites using the hexahistidine-CREBBP plasmid as a template. 5x10^5 HEK293T cells were plated on a 6 well plate the day prior to transfection with 1.5 μg ePL-CBP-BRD plasmid using 5 μl FugeneHD (Promega E2311) in 500 μl optiMEM® (Gibco, 31985062) . Proteins were allowed to express for 20 h before cells were trypsinized, washed and resuspended in low -serum medium (DMEM with 5 % FBS). Compounds were serially diluted in DMSO at 100x, pre-diluted to 5x in complete medium (DMEM with 10 % FBS and 1 % P/S), then added to a suspension of 5x10^3 cells, giving a final DMSO concentration of 1 %. Treated cells were incubated for 1 h at 37 °C in an incubator, followed by a heat shock for 3 min at 45 °C and recovery for 3 min at 22 °C using a thermocycler with a ramp rate of 1 °C/s (SimpliAmp, Thermo Fisher). Stab ilized ePL tag was quantified using the InCELL detecti n Kit isc verX as per the manufacturer’s pr t c usin the -10 working detection solution and a 2 h incubation before reading luminescence with a SpectraMax M5 plate reader (Molecular devices). […]

[4] = test system: myc expression in LP1 cells; test: myc mRNA expression by RT-qPCR; assay type: cell-based; details: 4 h treatment of LP1 cells with 1 μM compound
Description: For myc expression, 1x10^6 LP1 cells were plated the day prior to a 4 h treatment with compounds at a final DMSO concentration of 0.1 %. […]
In all cases, total
as §1

T1 sequence (Q92793 1083-1197): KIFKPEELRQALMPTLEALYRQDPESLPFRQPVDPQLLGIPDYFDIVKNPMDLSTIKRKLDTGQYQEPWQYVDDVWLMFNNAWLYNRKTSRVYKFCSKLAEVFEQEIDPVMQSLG

Compound: CNC(=O)Nc1ccc2c(c1)CC[C@@]21OC(=O)N(CC(=O)N(Cc2ccc(F)cc2)[C@@H](C)C(F)(F)F)C1=O [A485]
- TNF-α-induced expression of il1β, il8, mcp-1 and tnf-α (mRNA) [1]: significantly reduced the TNF-α-induced expression of all four tested genes
- GI30 (MRC5 cells): 1200 nM
- TNF-α-induced IL-8 protein secretion [2]: significantly reducing its TNF-α-induced secretion

Compound: C[C@@H]1CC(=O)Nc2cccc(-c3ccc4c(c3)c(-c3cnn(C)c3)nn4C)c2N1 [CPI-637]
- IC50 (CBP-BRD; ref Taylor et al., 2016): 30 nM
- Sel. over BRD4(1)-BRD (BRD4(1)-BRD; ref Taylor et al., 2016): 367 fold

- solubility kinetic at 90 min (kinetic solubility): 9.5 ± 0.4 µM (≈ 4.63 µg/mL)
Compound: Cc1cc2c(NC(=O)c3cc(NC(=O)c4ccco4)cc(-c4nn(C)cc4Cl)c3)cccc2nn1 [Compound 3]

- solubility kinetic at 90 min (kinetic solubility): 6 ± 1 µM (≈ 2.8 µg/mL)
Compound: Cc1cc2c(NC(=O)c3cc(NC(=O)c4ccco4)cc(-c4c(C)n[nH]c4C)c3)cccc2nn1 [Compound 4]

- cellular binding to CBP-BRD (InCELL Pulse) [3]: able to engage the target very similarly
- solubility kinetic at 90 min (kinetic solubility): 71 ± 0.7 µM (≈ 32.4 µg/mL)
Compound: Cc1cc2c(NC(=O)c3cc(NC(=O)[C@@H]4CCCO4)cc(-c4ccn(C)n4)c3)cccc2nn1 [Compound 6]
- myc mRNA expression [4]: significantly decreased the expression level of myc

- solubility kinetic at 90 min (kinetic solubility): 82.6 ± 0.7 µM (≈ 36.5 µg/mL)
Compound: Cc1cc2c(NC(=O)c3cc(NC(=O)C4COC4)cc(-c4ccn(C)n4)c3)cccc2nn1 [Compound 7]

- solubility kinetic at 90 min (kinetic solubility): 69.9 ± 2.3 µM (≈ 39.5 µg/mL)
Compound: Cc1cc2c(NC(=O)c3cc(NC(=O)c4ccc(CN5CCN(C)CC5)o4)cc(-c4ccn(C)n4)c3)cccc2nn1 [Compound 8]

Compound: CNC(=O)N1CCc2c(c(N3CCCc4cc(-c5cnn(C)c5)c(C(F)F)cc43)nn2C2CCOCC2)C1 [GNE-781]
- IC50 (CBP-BRD; ref Romero et al., 2017): 0.9 nM
- Sel. over BRD4(1)-BRD (BRD4(1)-BRD; ref Romero et al., 2017): 5425 fold

Compound: COc1ccc(CCc2nc3cc(-c4c(C)noc4C)ccc3n2C[C@H](C)N2CCOCC2)cc1Cl [SGC-CBP30]
- Sel. over BRD4(1)-BRD (BRD4(1)-BRD; ref Hay et al., 2014): 40 fold

Compound: COc1ccc(CCc2nc3cc(-c4c(C)noc4C)ccn3c2NC2CCCCC2)cc1Cl [UMB298]
- Sel. over BRD4(1)-BRD (BRD4(1)-BRD; ref Muthengi et al., 2021): 72 fold
